Patent publication US20070027120A1, “Methods of using vitamin D compounds in the treatment of myelodysplastic syndromes” (priority 2002, published 2007)
Read-outs that look alike come from different tables or passages of the source.

Legend:
[1] = test system: low risk MDS and refractory anemia unresponsive to erythropoietin; assay: Phase 2 trial of high dose pulse administration of calcitriol; type: in vivo, human
Method: Patients having low risk MDS and refractory anemia unresponsive to erythropoietin were entered into a Phase 2 trial to evaluate the effect of high dose pulse administration of calcitriol. These patients are red blood cell transfusion dependent because of severe anemia. Patients were administered weekly oral calcitriol at a dose of 45 μg for 20 consecutive weeks. The calcitriol was formulated in a composition containing the following excipients with the amount given in approximate percentage by weight: 65% MIGLYOL 812N®, 30% […] 44/14®, 5% vitamin-E TPGS and about 0.05% each of butylated hydroxytoluene (BHT) and butylated hydroxyanisole (BHA).

[2] = test system: MDS; conditions: cited from earlier work
[3] = test system: refractory malignancies; conditions: weekly HDPA; cited from earlier work
[4] = relative to calcitriol; cited from earlier work
[5] = test system: MDS; conditions: cited from earlier work; remark: listed apart in the source
[6] = test system: MDS; conditions: 75 mg/m^2/day subcutaneously for 7 days out of 28; cited from earlier work
[7] = Patient #1, 45 μg oral weekly for 20 weeks
[8] = Patient #3, 45 μg oral weekly for 20 weeks

With `C=C1/C(=C/C=C2/CCC[C@@]3(C)C2CC[C@@H]3[C@H](C)CCCC(C)(C)O)C[C@@H](O)C[C@@H]1O` (stereo in doubt) [calcitriol, 1α,25-dihydroxycholecalciferol] the protocol defined response [1, 7] was “minor response (A minor erythroid responder is a subject with a baseline hemoglobin of less than 11 g/dL who experiences an increase of 1 to 2 g/dL from baseline)”, the “rise in hemoglobin as compared to baseline” value [1, 7] was “more than one” and the “decrease in required red blood cell transfusions as compared to baseline” value ([1]; Patient #2, 45 μg oral weekly for 20 weeks) was 50%. For the same compound, the protocol defined response [1, 8] was “major response (A major erythroid responder is a subject with a baseline hemoglobin of less than 11 g/dL who experiences an increase of greater than or equal to 2 g/dL from the baseline)”, the “rise in hemoglobin as compared to baseline” value [1, 8] was “more than two” and the “dose at which hypercalcemia was induced” value ([2]; daily administration (Koeffler et al.)) was 2 µg/day. The “maximum dose administered without hypercalcemia” value ([2]; subjects with MDS (Mellibovsky et al.)) was 0.75 µg/day, the dose-limiting toxicity [3] was “no dose-limiting toxicity” and the “mean peak calcitriol levels” value [3] was “within the therapeutic range”. For the same compound, the calcemic index [4] was 1.

In the case of “EPO: erythropoietin, hematopoietic growth factor”, the subjects who respond ([5]; EPO administered with G-CSF) is given as “about 40%”, the subjects who respond ([5]; EPO alone) is given as “about 20%” and the rate of responsiveness ([5]; refractory anemia and refractory anemia with ring sideroblasts) is given as 21%. The rate of responsiveness ([5]; refractory anemia with excess blasts) was 8%.

In the case of `C=C1/C(=C\C=C2/CCC[C@]3(C)[C@@H]([C@H](C)/C=C/[C@@H](O)C4CC4)CC[C@@H]23)C[C@@H](O)C[C@@H]1O` [calcipotriol], the calcemic index [4] is listed as “about 0.01”.

In the case of `Nc1ncn([C@@H]2O[C@H](CO)[C@@H](O)[C@H]2O)c(=O)n1` [5-azacytidine], the “patients with a complete response” value [6] is listed as 7% and the “patients with at least a partial response” value [6] is listed as about 60%.
